From article PMC8682738, “Constrained peptides mimic a viral suppressor of RNA silencing” (Nucleic Acids Research, 2021)
Positions of bridges follow the written chain, without caps; N, C: chain ends. Non-standard residues stand in square brackets, D forms with d. Residues, ends and D or L forms follow the SMILES beside them. *: point of attachment. FITC = O=C1OC2(c3ccc(O)cc3Oc3cc(O)ccc32)c2ccc(NC(=S)*)cc21; R8 = C=CCCCCCC[C@@](C)(N)C(=O)O; S5 = C=CCCC[C@](C)(N)C(=O)O; AEEA = NCCOCCOCC(=O)O

Key:
pal-RNA duplex = assay: ITC of N-terminally acetylated peptides with pal-RNA duplex; type: binding; conditions: for fold increased affinity compared to linear peptide wt33: unlabeled analogs, pal-RNA
Method: (§1) Isothermal titration calorimetry (ITC) was conducted using a MicroCal VP-ITC (Malvern Panalytical). Before measurement, oligonucleotide and peptide samples were dissolved in PBS and degassed using a ThermoVac (Malvern Panalytical) and heated to 30°C. N-terminally acetylated peptides (c = 3–12 μM) were then transferred into the sample cell and oligonucleotides (c = 12–72 μM) were transferred into the syringe. 35 Injections per measurement were performed at 30°C (8 μl injection volume, 2 s injection time, 180 s spacing, high feedback mode) with an initial delay of 60 s and a stirring speed of 307 rpm. Measurements were performed in triplicate. Using the MicroCal LLC ITC software (Origin; OriginLab Corporation), the heat associated with each injection was calculated by integrating the area under the curve in microcalories per second [μca/s] versus time [min] for each injection and then normalized to concentration. A ‘single set of identical binding sites’ model was used to fit the binding curves from which thermodynamic binding parameters (ΔG, ΔH, ΔS, N and Kd) were obtained.

ds miR-21 = assay: ITC with ds miR-21; type: binding
Method: as §1

pre-miR-21 [1] = assay: ITC with pre-miR-21; type: binding
Method: as §1

ds RNA hairpins HP 1–5 = assay: EMSA with ds RNA hairpins HP 1-5; type: binding; conditions: fluorescein-labeled B3 2 μM, hairpin RNA 1 μM, TAE and 10% glycerol, RT 1 h
Method: Electrophoretic mobility shift assays (EMSAs) were performed using a Bio-Rad Mini-Protean gel system paired with a direct current (DC) power source (PowerPac™ HC, Bio-Rad). Typically, 6 μl solutions containing ds RNA (c = 3 μM) and fluorescein-labeled peptide (c = 6 μM) were incubated in binding buffer (10 mM Tris (pH 8.0), 0.5 mM EDTA, 12.5% glycerol and 150 mM KCl) at 4°C for 1 h. After incubation, bound RNA was resolved from peptide-free RNA using 10% non-denaturing polyacrylamide gels at 120 V in running buffer (25 mM Tris (pH 8.0), 200 mM glycine, 20 mM NaCl) at 4°C for 1 h. Visualization of fluorescent gel-bound species was conducted using a Typhoon Trio + fluorescence scanner (GE Healthcare Life Sciences). For nucleic acid visualization, gels were stained using 2 μl of SYBR™ gold nucleic acid gel dye (Molecular Probes) in 20 ml of TAE buffer (40 mM Tris, 1 mM EDTA, 20 mM acetic acid) for 45 min at RT before being visualized using a FluorChem™ gel documentation system (Alpha Innotech). To assess B3 binding to different ds RNA sequences (Supplementary Figure S20), 6 μl solutions containing hairpin RNA (c = 1 μM) and fluorescein-labeled B3 (c = 2 μM) were incubated in binding buffer (TAE and 10% glycerol) at RT for 1 h, and then resolved using 15% non-denaturing polyacrylamide gels (acrylamide/bis-acrylamide (19:1) in TAE) at 150 V in running buffer (TAE) at 4°C for 1.5 h. […]

pre-miR-21 [2] = assay: Pull-down of pre-miR-21 from K562 cells; type: cell-based, human; conditions: biotinylated peptide 10 μM, streptavidin beads, qRT-PCR, triplicate
Method: 2 × 10^6 K562 cells were incubated with N-terminally biotinylated peptides (c(peptide) = 10 μM, t = 2.5 h) for uptake on a rotating wheel at 37°C. The cells were extensively washed in PBS and lysed in lysis buffer (25 mM HEPES, pH 7.5, 150 mM NaCl, 0.05% IGEPAL CA-630, 1 mM EDTA) supplemented with 0.5 U/μl RNAse inhibitor (Superase-in, ThermoFisher). The lysate was cleared by centrifugation at 21 000 g at 4°C, an aliquot of the supernatant was removed and re-suspended in Trizol, while the remaining was incubated with streptavidin-coupled magnetic beads (Dynabeads M280, ThermoFisher) on a rotating wheel (2 h, 4°C). After magnetic separation and washing (3× in lysis buffer), the beads were re-suspended in 20 μl lysis buffer, re-suspended in Trizol (ThermoFisher), and 400 ng t-RNA was added per sample as a carrier. RNA was extracted from Trizol using the standard protocol and the qRT-PCR was performed according to a previously published protocol ([62]) using the primers h-miR21-3p-FW ([…]), h-miR21-3p-RV ([…]), h-miR21-5p-FW ([…]), h-miR21-5p-RV ([…]) in a CFX96 real-time machine (Bio-Rad). The relative enrichment was calculated as a ratio of copies in the immunoprecipitate over input normalized to the enrichment of the control peptide D1.

[3] = N-terminally acetylated peptide, PBS pH 7.4, 30°C, single set of identical binding sites model, triplicate, errors 1σ

## CC(C)C[C@H](NC(=O)[C@]1(C)CCCC=CCCC[C@](C)(NC(=O)[C@H](CCC(=O)O)NC(=O)[C@H](CO)NC(=O)[C@@H]2CCCN2C(=O)[C@H](CO)NC(=O)[C@H](CCCCN)NC(=O)[C@H](Cc2c[nH]cn2)NC(=O)CNC(=O)[C@H](CCCNC(=N)N)NC(=O)[C@]2(C)CCCC=CCCC[C@](C)(NC(=O)[C@H](CCCCN)NC(=O)[C@H](Cc3c[nH]cn3)NC(=O)[C@H](CCCNC(=N)N)NC(=O)[C@H](CCCCN)NC(=O)[C@H](CCCNC(=N)N)NC(=O)[C@H](CCC(N)=O)NC(=O)[C@H](C)NC(=O)[C@H](CCC(N)=O)NC(=O)[C@H](CCCCN)NC(=O)[C@H](CCCCN)NC(=O)COCCOCCNC(=S)Nc3ccc4c(c3)C(=O)OC43c4ccc(O)cc4Oc4cc(O)ccc43)C(=O)N[C@@H](CC(N)=O)C(=O)N[C@@H](CCCNC(=N)N)C(=O)N[C@@H](CCCCN)C(=O)N2)C(=O)N[C@@H](CCCNC(=N)N)C(=O)N[C@@H](CCCNC(=N)N)C(=O)N[C@@H](CO)C(=O)N1)C(=O)N[C@@H](Cc1c[nH]c2ccccc12)C(=O)N[C@@H](Cc1c[nH]cn1)C(=O)N[C@@H](C)C(=O)N[C@@H](CCCNC(=N)N)C(N)=O [B3] ({FITC-AEEA}-KKQAQRKRHK[S5]NRK[S5]RGHKSPSE[S5]RRS[S5]LWHAR-NH2; staple 11-15, 24-28)
pal-RNA duplex; [3]
  Kd: 70 nM
pal-RNA duplex; pal-RNA duplex
  Kd: 70 ± 1 nM
pal-RNA duplex
  fold increased affinity compared to linear peptide wt33: 17 fold
Ds miR-21
  Kd: 18 ± 2 nM
pre-miR-21 [1]
  Kd: 75 ± 8 nM
Ds RNA hairpins HP 1–5
  binding to ds RNA hairpins in EMSA: showed binding to each hairpin
pre-miR-21 [2]
  enrichment of pre-miR-21 relative to control peptide D1: 4 fold

## CC(C)C[C@@H]1NC(=O)[C@@](C)(NC(=O)[C@H](CO)NC(=O)[C@H](CCCNC(=N)N)NC(=O)[C@H](CCCNC(=N)N)NC(=O)[C@H](CCC(N)=O)NC(=O)[C@H](CCC(=O)O)NC(=O)[C@H](CO)NC(=O)[C@@H]2CCCN2C(=O)[C@H](CO)NC(=O)[C@H](CCCCN)NC(=O)[C@H](Cc2c[nH]cn2)NC(=O)CNC(=O)[C@H](CCCNC(=N)N)NC(=O)[C@H](CCC(=O)O)NC(=O)[C@H](CCCCN)NC(=O)[C@H](CCCNC(=N)N)NC(=O)[C@H](CC(N)=O)NC(=O)[C@]2(C)CCCC=CCCCCCC[C@@](C)(NC(=O)[C@H](CCC(N)=O)NC(=O)[C@H](CCCCN)NC(=O)[C@H](CCCCN)NC(=O)COCCOCCNC(=S)Nc3ccc4c(c3)C(=O)OC43c4ccc(O)cc4Oc4cc(O)ccc43)C(=O)N[C@@H](CCC(N)=O)C(=O)N[C@@H](CCCNC(=N)N)C(=O)N[C@@H](CCCCN)C(=O)N[C@@H](CCCNC(=N)N)C(=O)N[C@@H](Cc3c[nH]cn3)C(=O)N[C@@H](CCCCN)C(=O)N2)CCCC=CCCC[C@@](C)(C(=O)N[C@@H](CCCNC(=N)N)C(N)=O)NC(=O)[C@H](Cc2c[nH]cn2)NC(=O)[C@H](Cc2c[nH]c3ccccc23)NC1=O [C1] ({FITC-AEEA}-KKQ[R8]QRKRHK[S5]NRKERGHKSPSEQRRS[S5]LWH[S5]R-NH2; staple 4-11, 28-32)
pal-RNA duplex; [3]
  Kd: 180 nM
pal-RNA duplex
  fold increased affinity compared to linear peptide wt33: 7 fold
pre-miR-21 [2]
  enrichment of pre-miR-21 relative to control peptide D1: did not show detectable pre-miR-21 enrichment
